Laboratory results from EP0054898A1, “Formamidine derivatives, preparation and use thereof, pharmaceutical compositions containing them and their preparation” (HOECHST AKTIENGESELLSCHAFT, priority 1980, dated 1982).

Test system: Serum-Lipoproteine
Experiment: Effect on serum lipoproteins (cholesterol in serum and in ultracentrifuge fractions) in rats after 7 days of oral treatment
Type: in vivo, männlichen Wistar-Ratten
Conditions: Dosis 1 mg/kg/Tag, oral (gavage), 7 days, pooled serum
From the text: Die Wirkung der angeführten Verbindungen auf die Serum- Lipoproteine wurde an männlichen Wistar-Ratten untersucht, die 7 Tage per Schlundsonde mit den angeführten in Polyäthylenglykol 400 suspendierten Verbindungen behandelt wurden. Außerdem wurde eine Kontrollgruppe, die nur das Lösungsmittel Polyäthylenglykol 400 erhielt, mitgeführt, sowie eine Ratten-Gruppe, die zum Vergleich das Standardhypolipidämikum Clofibrat, ebenfalls in Polyäthylenglykol 400 gelöst, erhielt. Pro Gruppe wurden in der Regel 10 Tiere eingesetzt, denen am Ende der Behandlung das Blut nach leichter Äthernakose aus dem Orbitalplexus entnommen wurde. Das daraus gewonnene Serum wurde gepoolt. Die Serum- Lipoproteine wurden in der Ultrazentrifuge in folgende Dichteklassen getrennt: • VLDL 1,006; LDL 1,006 bis 1,04; HDL 1,04 bis 1,21.
Aus den in der Ultrazentrifuge isolierten LipoproteinFraktionen wurde das darin enthaltene Choletserin vollenzymatisch nach der CHOD-PAP-Methode mittels der Testkombination von Boehringer Mannheim bestimmt und die Werte in ug/ml Serum umgerechnet. In der angeführten Tabelle (S.8) ist die Veränderung des Lipoprotein-Cholesterins in der behandelten Gruppe gegenüber einer unter gleichen Bedingungen mitgeführten Kontrollgruppe angegeben.
% Veränderung der Lipoproteine in Ratten-Serum nach siebentägiger oraler Behandlung mit den Verbindungen

Row | SMILES | % Veränderung des Cholesterins gegenüber Kontrolle in der Serum-Lipoprotein-Fraktion VLDL
1 | CN(C#N)C=Nc1ccc(Oc2ccc(Cl)cc2)c(Cl)c1 [Beispiel 50] | +3%

Same assay, conditions: Dosis 3 mg/kg/Tag, oral (gavage), 7 days, pooled serum

Row | SMILES | % Veränderung des Cholesterins gegenüber Kontrolle im Serum | % Veränderung des Cholesterins gegenüber Kontrolle in der Serum-Lipoprotein-Fraktion HDL | % Veränderung des Cholesterins gegenüber Kontrolle in der Serum-Lipoprotein-Fraktion LDL | % Veränderung des Cholesterins gegenüber Kontrolle in der Serum-Lipoprotein-Fraktion VLDL
2 | CCCCN(C=Nc1ccc(Sc2ccccc2)cc1)S(=O)(=O)c1ccc(C)cc1 [Beispiel 27] | -18% | -2% | -50% | -13%
3 | Cc1ccc(S(=O)(=O)N(C=Nc2ccc(Sc3ccccc3)cc2)C(C)C)cc1 [Beispiel 28] | -5% | +2% | -25% | -5%
4 | Cc1ccc(S(=O)(=O)N(C)C=Nc2ccc(Cl)cc2C(F)(F)F)cc1 [Beispiel 39] | -3% | -7% | -26% | -26%
5 | CN(C#N)C=Nc1ccc(Oc2ccccc2)cc1 [Beispiel 48] | -8% | -2% | -56% | –
6 | CN(C#N)C=Nc1ccc(Oc2ccc(Cl)cc2Cl)cc1 [Beispiel 49] | +2% | +2% | -48% | –

Same assay, conditions: Dosis 10 mg/kg/Tag, oral (gavage), 7 days, pooled serum

Row | SMILES | % Veränderung des Cholesterins gegenüber Kontrolle im Serum | % Veränderung des Cholesterins gegenüber Kontrolle in der Serum-Lipoprotein-Fraktion HDL | % Veränderung des Cholesterins gegenüber Kontrolle in der Serum-Lipoprotein-Fraktion LDL | % Veränderung des Cholesterins gegenüber Kontrolle in der Serum-Lipoprotein-Fraktion VLDL
7 | Cc1ccc(S(=O)(=O)N(C=Nc2ccc(Oc3ccccc3)cc2)Cc2ccccc2)cc1 [Beispiel 2] | -4% | +3% | -22% | -50%
8 | CCCN(C=Nc1ccc(Oc2ccccc2)cc1)S(=O)(=O)c1ccc(C)cc1 [Beispiel 3] | -5% | +8% | -22% | -32%
9 | C#CCN(C=Nc1ccc(Oc2ccccc2)cc1)S(=O)(=O)c1ccc(C)cc1 [Beispiel 7] | -1% | +5% | -22% | -51%
10 | Cc1ccc(S(=O)(=O)N(C)C=Nc2ccc(Oc3ccccc3)cc2)cc1 [Beispiel 12] | -6% | -1% | -42% | -70%
11 | Cc1ccc(S(=O)(=O)N(C)C=Nc2ccc(Oc3ccc(Cl)cc3Cl)cc2)cc1 [Beispiel 13] | -6% | +1% | -39% | -100%
12 | Cc1ccc(S(=O)(=O)N(C)C=Nc2ccc(Sc3ccccc3)cc2)cc1 [Beispiel 25] | -5% | +5% | -45% | -70%
13 | CCN(C=Nc1ccc(Sc2ccccc2)cc1)S(=O)(=O)c1ccc(C)cc1 [Beispiel 30] | -3% | -1% | -27% | –
14 | Cc1ccc(S(=O)(=O)N(C)C=Nc2c(C)cc(C)cc2C)cc1 [Beispiel 34] | +10% | +14% | -36% | –
15 | Cc1ccc(S(=O)(=O)N(C)C=Nc2cc(C(F)(F)F)cc(C(F)(F)F)c2)cc1 [Beispiel 36] | -2% | – | – | –
16 | Cc1ccc(S(=O)(=O)N(C)C=Nc2ccccc2C)cc1 [Beispiel 37] | -8% | +3% | -51% | –
17 | Cc1ccc(S(=O)(=O)N(C)C=Nc2ccc(Cl)cc2C)cc1 [Beispiel 38] | -8% | +2% | -36% | -30%

Same assay, conditions: Dosis 100 mg/kg/Tag, oral (gavage), 7 days, pooled serum

Row | SMILES | % Veränderung des Cholesterins gegenüber Kontrolle im Serum | % Veränderung des Cholesterins gegenüber Kontrolle in der Serum-Lipoprotein-Fraktion HDL | % Veränderung des Cholesterins gegenüber Kontrolle in der Serum-Lipoprotein-Fraktion LDL | % Veränderung des Cholesterins gegenüber Kontrolle in der Serum-Lipoprotein-Fraktion VLDL
18 | CCOC(=O)C(C)(C)Oc1ccc(Cl)cc1 [Clofibrat, reference compound] | -24% | -33% | -25% | -30%

Same assay, conditions: summary in words of the table, 7 days oral

Row | SMILES | Wirkung auf die Lipoproteinfraktionen (VLDL, LDL, HDL)
19 | CCOC(=O)C(C)(C)Oc1ccc(Cl)cc1 [Clofibrat, reference compound] | etwa gleichstarke Senkung der LDL-Fraktion und der HDL-Fraktion

Test system: not listed separately
Experiment: Relative liver weight
Type: in vivo
Conditions: in wirksamer Dosis; result in words
From the text: Es ist allgemein anerkannt, daß für die Entstehung artericsklerotischer Gefäßveränderungen, insbesondere der coronaren Herzkrankheit, Hyperlipoproteinämien einen wesentlichen Risikofaktor darstellen. Für die Prophylaxe und die Regression von atherosklerotischen Veränderungen kommt daher der Senkung erhöhter Serum-Lipoproteine eine außerordentliche Bedeutung zu. Hierbei kommt es aber auf ganz bestimmte Klassen von Serum-Lipoproteinen an, da die low density (LDL) und very low density-Lipoproteine (VLDL) einen atherogenen Risikofaktor darstellen, während die high density-Lipoproteine (HDL) eine Schutzfunktion gegenüber der coronaren Herzkrankheit darstellen. Hypolipidämika sollen demnach VLDL-Cholesterin und LDL-Cholesterin im Serum erniedrigen, dabei aber die HDL-Cholesterin-Konzentration nach Möglichkeit unbeeinflußt lassen oder sogar erhöhen. Die erfindungsgemäßen Verbindungen haben wertvolle therapeutische Eigenschaften. So erniedrigen sie vor allem die Konzentration von LDL und VLDL, während die HDL-Fraktion entweder in wesentlich geringerem Maße erniedrigt, oder sogar erhöht wird..Sie können daher zur Prophylaxe und Regression von atherosklerotischen Veränderungen herangezogen werden, indem sie einen kausalen Risikofaktor ausschalten. Hierzu zählen nicht nur die primären Hyperlipoproteinämien, sondern auch gewisse.sekundäre Hyperlipidämien wie sie z.B. beim Diabtes vorkommen.

Row | SMILES | relatives Lebergewicht
20 | CCOC(=O)C(C)(C)Oc1ccc(Cl)cc1 [Clofibrat, reference compound] | starken Erhöhung des relativen Lebergewichts
